Measured values reported in US20240390434A1, “PROBIOTIC ENHANCERS AND USES THEREOF” (Blis Technologies Limited, priority 2021, published 2024).

What was measured:
Type in all cases: cell-based
S. constellatus T29 = experiment: Deferred antagonism assay, producer S. salivarius K12; conditions: for Zone of inhibition S. constellatus T29: K12
Description: (§1) 1-2 producer strain colonies were transferred from a stock plate into 900 μL of suspension solution using a fresh cotton swab. Following this, suspensions were vortexed, and a sample was inoculated onto solid culture media using a fresh cotton swab. The inoculation was a streak that runs diametrically across the agar plate in a 1.5 cm wide strip. The plate was then incubated. Following incubation all visible colonies were removed by swabbing them from the agar surface. The plates were then treated with chloroform by dispensing 2 ml of chloroform onto 4 cm×4 cm piece of cloth and sealing the inverted agar plate on top for 30 minutes. The plates were then air dried for 30 minutes following chloroforming. 1-2 indicator strain colonies were then transferred from a stock plate into complementary suspension solution. The suspensions were then vortexed, and a sample was inoculated onto the same agar surface. These samples were streaked in a perpendicular direction to the initial producer streak.
(§2) Each indicator streak was prepared with fresh a suspension containing cells from a corresponding stock plate containing the indicator strain of interest. Indicator strains suspension samples were transferred using a fresh cotton swab. Results were measured by qualitatively reviewing the subsequent (if any) sizes of the zones of inhibition (ZOI) of indicator strain colony growth. A positive result is when there is a distinctive reduction or complete inhibition of indicator colony growth on the culture medium.
(§3) CABCa agar plates containing various concentrations of saccharide were prepared according to the methods described in Method 1. Producer strains were transferred from stock agar plates into 900 μL THB using a fresh cotton swab. A plastic spread plater was cut to approximately 1.2 cm width and then dipped into ethanol and left to air dry to ensure sterility. A 100 μL sample of the producer strain suspension was then dispensed onto the agar surface in a straight line running diametrically across the agar surface in (approximately) 20 μL spots. The spots were spaced approximately 1.5 cm apart from each other. The plastic spreader was then used to evenly distribute the spots across the agar surface in a 1.5 cm wide strip. This step was taken to ensure an even producer streak was inoculated onto the agar surface and provided an approximate measure of the initial inoculum concentration. Separate plastic spreaders were used for samples containing different producer strains. The samples were left to soak into the agar surface until there was no visible liquid remaining on the agar surface (approximately 20 minutes). Following producer streak preparations, the deferred antagonism assay protocol was followed as per Method 2. Results were recorded by measuring the size of the zone of inhibition (ZOI) in mm.
(§4) A dose response assay was carried out according to method 3 above, except a 1.2 cm streak was used. For the individual saccharide testing the pH of the producer streak was adjusted after the growth of producer to change the acidic conditions.
(§5) A deferred antagonism assay was conducted using K12 or M18 raw ingredient suspended in Todd Hewitt broth (THB). This was spread as a 1.2 cm streak containing approximately 1-2×10^6 cfu down the middle of a CABCa control or CABCa galactose supplemented test plate. After 18 hrs growth at 37° C. with 5% CO2, bacterial growth was removed, and the pH of the agar in the initial streak was measured and adjusted to a pH of 6.5-7.5 using 0.5M sodium carbonate pH11 before sterilizing the agar surface using chloroform vapor. Bacterial test strains were suspended in i-THB before being swabbed across the plates perpendicular to the initial streak. Plates were incubated for a further 18 hrs incubation at 37° C. with 5% CO2 before measuring (mm) any zones of inhibition for each test strain, […]

S. pyogenes 71-698 = experiment: as above; conditions: for Zone of inhibition S. pyogenes 71-698: K12
Description: as §1, §2, §3, §4, §5

[1] = system: S. saprophyticus ATCC 15305; experiment: as above; conditions: for Zone of inhibition S. saprophyticus ATCC 15305 / Inhibitory activity of S. salivarius K12 in presence of saccharides, S. saprophyticus ATCC 15305: K12
Description: as §1, §2, §3, §4, §5

S. pneumoniae D39 = experiment: as above; conditions: for Zone of inhibition S. pneumoniae D39: K12
Description: as §1, §2, §3, §4, §5

S. aureus A222 = experiment: as above; conditions: for Zone of inhibition S. aureus A222 / Inhibitory activity of S. salivarius K12 in presence of saccharides, S. aureus A222: K12
Description: as §1, §2, §3, §4, §5

[2] = system: halitosis-causing gram-negative bacteria F. nucleatum, P. gingivalis and P. intermedia; experiment: Deferred antagonism assay (anaerobic), producer K12; conditions: 2.5% w/w raffinose; 0.5% w/w galactose; or combination
Description: Method: CABCa agar plates were prepared with or without 2.5% w/w raffinose, 0.5% w/w galactose or a combination of both saccharides by the addition of 0.5% (w/v) calcium carbonate to solid CAB agar in bottles and then melted by autoclaving at 110° C. for 10 mins. Once cooled, filter sterilised solutions of the saccharides or distilled water were added and mixed and then 20 ml pipetted into petri dishes.
A deferred antagonism assay was conducted using K12 or M18 raw ingredient suspended in THB. This was spread as a 1.2 cm streak containing approximately 1-2×10^6 cfu down the middle of a CABCa control or CABCa galactose supplemented test plate. After 18 hrs growth at 37° C., 5% CO2 in air, bacterial growth was removed, and the pH of the agar in the initial streak was measured and adjusted to a pH of 6.5-7.5 using 0.5M sodium carbonate pH11 before sterilizing the agar surface using chloroform vapor. Bacterial test strains were suspended in THB and swabbed across the plates perpendicular to the initial streak and then the plates were incubated at 37° C. in an anaerobic jar containing an anaeroGen sachet for 4 days. Zones of inhibition for each test strain were then measured (mm).

`OC[C@H]1O[C@H](OC[C@H]2O[C@H](O[C@]3(CO)O[C@H](CO)[C@@H](O)[C@@H]3O)[C@H](O)[C@@H](O)[C@@H]2O)[C@H](O)[C@@H](O)[C@H]1O` [Raffinose, D-(+) Raffinose pentahydrate] was tested. Which “inhibition by K12 of S. constellatus T-29” value (S. constellatus T29; 0.5 to 10% w/v raffinose) did it give?
The value was “increase in inhibition”.

And the “Zone of inhibition S. constellatus T29” value (S. constellatus T29; Raffinose 1.7% wt)?
The value was 8 mm.

And the “Zone of inhibition S. constellatus T29” value (S. constellatus T29; Raffinose 1.7% wt, pH adjusted)?
Its value is 4 mm.

What about the “Zone of inhibition S. constellatus T29” value (S. constellatus T29; Raffinose 2.5% wt) of the same compound?
Its value is 22 mm.

And the “Zone of inhibition S. constellatus T29” value (S. constellatus T29; Raffinose 2.5% wt, pH adjusted)?
Its value is 18 mm.

And the “Zone of inhibition S. constellatus T29” value (S. constellatus T29; Raffinose 3.3% wt, pH adjusted)?
Its value is 16 mm.

What about the “Zone of inhibition S. constellatus T29” value (S. constellatus T29; Raffinose 5% wt, pH adjusted) of the same compound?
The value was 12 mm.

And the “Zone of inhibition S. constellatus T29” value (S. constellatus T29; Raffinose 10% wt)?
The value was 2 mm.

And the “Zone of inhibition S. constellatus T29” value (S. constellatus T29; Raffinose 10% wt, pH adjusted)?
The value was 11 mm.

What about the “inhibition by K12 of S. pyogenes” value (S. pyogenes 71-698; 0.5 to 10% w/v raffinose) of the same compound?
The value was “increase in inhibition”.

And the “Zone of inhibition S. pyogenes 71-698” value (S. pyogenes 71-698; Raffinose 1.7% wt)?
The value was 10 mm.

And the “Zone of inhibition S. pyogenes 71-698” value (S. pyogenes 71-698; Raffinose 1.7% wt, pH adjusted)?
The value was 4 mm.

What about the “Zone of inhibition S. pyogenes 71-698” value (S. pyogenes 71-698; Raffinose 2.5% wt) of the same compound?
The value was 9 mm.

And the “Zone of inhibition S. pyogenes 71-698” value (S. pyogenes 71-698; Raffinose 2.5% wt, pH adjusted)?
Its value is 3 mm.

And the “Zone of inhibition S. pyogenes 71-698” value (S. pyogenes 71-698; Raffinose 3.3% wt)?
The value was 11 mm.

What about the “Zone of inhibition S. pyogenes 71-698” value (S. pyogenes 71-698; Raffinose 5% wt) of the same compound?
Its value is 7 mm.

And the “Zone of inhibition S. pyogenes 71-698” value (S. pyogenes 71-698; Raffinose 5% wt, pH adjusted)?
Its value is 1 mm.

And the “Zone of inhibition S. pyogenes 71-698” value (S. pyogenes 71-698; Raffinose 10% wt)?
Its value is 3 mm.

And the “Zone of inhibition S. pyogenes 71-698” value (S. pyogenes 71-698; Raffinose 10% wt, pH adjusted)?
Its value is 3 mm.

And the “sensitivity of S. saprophyticus ATCC 15305 to K12” value ([1]; 2.5, 5 and 10% w/v raffinose added)?
Its value is “sensitive”.

And the “Zone of inhibition S. saprophyticus ATCC 15305” value ([1]; Raffinose 1.7% wt)?
The value was 7 mm.

And the “Zone of inhibition S. saprophyticus ATCC 15305” value ([1]; Raffinose 1.7% wt, pH adjusted)?
The value was 0 mm.

What about the “Zone of inhibition S. saprophyticus ATCC 15305” value ([1]; Raffinose 2.5% wt) of the same compound?
The value was 12 mm.

What about the “Zone of inhibition S. saprophyticus ATCC 15305” value ([1]; Raffinose 2.5% wt, pH adjusted) of the same compound?
The value was 8 mm.

And the “Zone of inhibition S. saprophyticus ATCC 15305” value ([1]; Raffinose 3.3% wt)?
Its value is 12 mm.

And the “Zone of inhibition S. saprophyticus ATCC 15305” value ([1]; Raffinose 3.3% wt, pH adjusted)?
Its value is 11 mm.

What about the “Zone of inhibition S. saprophyticus ATCC 15305” value ([1]; Raffinose 5% wt) of the same compound?
The value was 13 mm.

And the “Zone of inhibition S. saprophyticus ATCC 15305” value ([1]; Raffinose 5% wt, pH adjusted)?
The value was 12 mm.

What about the “Zone of inhibition S. saprophyticus ATCC 15305” value ([1]; Raffinose 10% wt) of the same compound?
Its value is 12 mm.

What about the “Zone of inhibition S. saprophyticus ATCC 15305” value ([1]; Raffinose 10% wt, pH adjusted) of the same compound?
Its value is 11 mm.

And the “Inhibitory activity of S. salivarius K12 in presence of saccharides, S. saprophyticus ATCC 15305” value ([1]; saccharide 3.3% w/v)?
The value was “✓”.

What about the “Inhibitory activity of S. salivarius K12 in presence of saccharides, S. saprophyticus ATCC 15305” value ([1]; saccharide range 2.5%-10% w/v) of the same compound?
The value was “✓”.

What about the “inhibition by K12 of S. pneumoniae” value (S. pneumoniae D39; 0.5 to 10% w/v raffinose) of the same compound?
The value was “increase in inhibition”.

What about the “Zone of inhibition S. pneumoniae D39” value (S. pneumoniae D39; Raffinose 1.7% wt) of the same compound?
Its value is 5 mm.

What about the “Zone of inhibition S. pneumoniae D39” value (S. pneumoniae D39; Raffinose 1.7% wt, pH adjusted) of the same compound?
The value was 10 mm.

What about the “Zone of inhibition S. pneumoniae D39” value (S. pneumoniae D39; Raffinose 2.5% wt) of the same compound?
Its value is 8 mm.

What about the “Zone of inhibition S. pneumoniae D39” value (S. pneumoniae D39; Raffinose 2.5% wt, pH adjusted) of the same compound?
The value was 9 mm.

And the “Zone of inhibition S. pneumoniae D39” value (S. pneumoniae D39; Raffinose 3.3% wt)?
Its value is 10 mm.

And the “Zone of inhibition S. pneumoniae D39” value (S. pneumoniae D39; Raffinose 3.3% wt, pH adjusted)?
Its value is 7 mm.

And the “Zone of inhibition S. pneumoniae D39” value (S. pneumoniae D39; Raffinose 5% wt)?
Its value is 8 mm.

What about the “Zone of inhibition S. pneumoniae D39” value (S. pneumoniae D39; Raffinose 5% wt, pH adjusted) of the same compound?
Its value is 13 mm.

And the “Zone of inhibition S. pneumoniae D39” value (S. pneumoniae D39; Raffinose 10% wt)?
The value was 10 mm.

What about the “Zone of inhibition S. pneumoniae D39” value (S. pneumoniae D39; Raffinose 10% wt, pH adjusted) of the same compound?
The value was 10 mm.

What about the “sensitivity of S. aureus A222 to K12” value (S. aureus A222; 1.25, 2.5, 5 and 10% w/v raffinose added) of the same compound?
The value was “sensitive”.

And the “Zone of inhibition S. aureus A222” value (S. aureus A222; Raffinose 1.7% wt)?
The value was 12 mm.

And the “Zone of inhibition S. aureus A222” value (S. aureus A222; Raffinose 1.7% wt, pH adjusted)?
The value was 8 mm.

And the “Zone of inhibition S. aureus A222” value (S. aureus A222; Raffinose 2.5% wt)?
The value was 15 mm.

And the “Zone of inhibition S. aureus A222” value (S. aureus A222; Raffinose 2.5% wt, pH adjusted)?
The value was 15 mm.

And the “Zone of inhibition S. aureus A222” value (S. aureus A222; Raffinose 3.3% wt)?
Its value is 16 mm.

What about the “Zone of inhibition S. aureus A222” value (S. aureus A222; Raffinose 3.3% wt, pH adjusted) of the same compound?
Its value is 13 mm.

What about the “Zone of inhibition S. aureus A222” value (S. aureus A222; Raffinose 5% wt) of the same compound?
The value was 14 mm.

What about the “Zone of inhibition S. aureus A222” value (S. aureus A222; Raffinose 5% wt, pH adjusted) of the same compound?
Its value is 14 mm.

What about the “Zone of inhibition S. aureus A222” value (S. aureus A222; Raffinose 10% wt) of the same compound?
Its value is 13 mm.

What about the “Zone of inhibition S. aureus A222” value (S. aureus A222; Raffinose 10% wt, pH adjusted) of the same compound?
The value was 13 mm.

What about the “Inhibitory activity of S. salivarius K12 in presence of saccharides, S. aureus A222” value (S. aureus A222; saccharide 3.3% w/v) of the same compound?
Its value is “✓”.

And the “Inhibitory activity of S. salivarius K12 in presence of saccharides, S. aureus A222” value (S. aureus A222; saccharide range 2.5%-10% w/v)?
The value was “✓”.

And the “antimicrobial activity of K12 against halitosis-causing gram-negative bacteria” value [2]?
Its value is “inhibit a variety of strains”.
